In patent US4647562A, “Anti-spasmodic agents having three branch chains” (United Pharmaceuticals, Inc., priority 1985, dated 1987):
Where a name gives a salt, the structure may show the parent alone. Read-outs that look alike come from different tables or passages of the source.

Assays:
smooth muscle = conditions: prior knowledge on thiphenamil hydrochloride; cited from earlier work
muscarinic receptors = format: binding, rabbit (New Zealand White); conditions: 1.0 × 10^-5 M compound; 0.1 nM [^3 H]QNB; 37° C., 60 minutes; pH 7.4
[1] = system: rabbit urinary bladder strip; assay: Relaxation of bethanechol-contracted rabbit urinary bladder strip preparation; conditions: for inhibition at 100 µM / inhibition at 10 µM / inhibition at 1 µM / inhibition at 0.1 µM / inhibition at 0.01 µM: Oryctolagus cuniculus
Description: The pharmacological actions of three anti-spasmodic compounds were studied in a rabbit urinary bladder strip preparation. In general, longitudinal strips were prepared from the base of freshly isolated rabbit bladders and were then suspended under near-physiological conditions in tissue baths. The strips were attached to force transducers and both contractile and relaxant activity was measured. To measure the relaxant effects on the anti-spasmodic compounds on previously-contracted bladder strips, the strips were initially exposed to the muscarinic receptor agonist bethanechol and allowed to reach a steady level of contractile activity for 20 minutes. At this point cumulative dose-responses to the various compounds were recorded. The rabbit abdomens were opened through a vertical midline incision. […] Tissues were allowed to equilibrate to a tension of 2 gm for sixty minutes during which time buffer was replaced at 20 minute intervals. […] Bethanechol was employed as the representative cholinergic agonist and, following equilibration, was added to the baths for a final concentration of 250 μM. The tissues were allowed 20 minutes to achieve a maintained level of contraction in response to bethanechol and, at this point, cumulative dose-response measurements for three anti-spasmodic compounds were started at concentrations ranging from 10^-8 M to 10^-4 M. Solutions were added in volumes up to 100 μl and were prepared fresh each day by dissolving them in distilled:deionzed water. […]

[2] = 10^-4 moles/liter, bethanechol 250 μM
[3] = 10^-5 moles/liter, bethanechol 250 μM
[4] = 10^-6 moles/liter, bethanechol 250 μM
[5] = 10^-7 moles/liter, bethanechol 250 μM
[6] = 10^-8 moles/liter, bethanechol 250 μM
[7] = pH 7.4, read-out: % of maximum relaxation
[8] = read-out: % background relaxation

| Structure (SMILES) | % inhibition of ^3 H[QNB] binding (muscarinic receptors) [%] | Decrease in force of contraction of rabbit bladder strip [1, 2] [gm] | Increase in length of rabbit bladder strip [1, 2] [cm] | Decrease in force of contraction of rabbit bladder strip [1, 3] [gm] | Increase in length of rabbit bladder strip [1, 3] [cm] | Decrease in force of contraction of rabbit bladder strip [1, 4] [gm] | Increase in length of rabbit bladder strip [1, 4] [cm] | Decrease in force of contraction of rabbit bladder strip [1, 5] [gm] | Increase in length of rabbit bladder strip [1, 5] [cm] | Decrease in force of contraction of rabbit bladder strip [1, 6] [gm] | Increase in length of rabbit bladder strip [1, 6] [cm] | further results |
| --- | --- | --- | --- | --- | --- | --- | --- | --- | --- | --- | --- | --- |
| CCN(CC)CCSC(=O)C(c1ccccc1)c1ccccc1 [Thiphenamil hydrochloride] | – | – | – | – | – | – | – | – | – | – | – | atropinic side effects (smooth muscle): without producing characteristic atropinic side effects on salivary and sweat glands, GI glands, the eye or the cardiovascular system; decrease spasm (smooth muscle): decrease spasm of the gastrointestinal tract, biliary tract, ureter and uterus |
| CCN(CC)CCSC(=O)CC(C)(C)C [t-butyl-acetyl-thio-S-(2-diethylaminoethyl)-ester.HCl] | 76 | 1.08 | 3.9 | 0.22 | 0.6 | 0.03 | 0.1 | 0.00 | 0.0 | 0.03 | 0.1 | inhibition at 100 µM ([1]; pH 7.4, 10^-4 moles/liter, bethanechol 250 μM, maximal = pre-bethanechol baseline, read-out: % of maximum relaxation): 98%; inhibition at 10 µM ([1]; pH 7.4, 10^-5 moles/liter, bethanechol 250 μM, maximal = pre-bethanechol baseline, read-out: % of maximum relaxation): 15%; inhibition at 1 µM ([1]; pH 7.4, 10^-6 moles/liter, bethanechol 250 μM, maximal = pre-bethanechol baseline, read-out: % of maximum relaxation): 2.5%; inhibition at 0.1 µM ([1]; pH 7.4, 10^-7 moles/liter, bethanechol 250 μM, maximal = pre-bethanechol baseline, read-out: % of maximum relaxation): 0%; inhibition at 0.01 µM ([1]; pH 7.4, 10^-8 moles/liter, bethanechol 250 μM, maximal = pre-bethanechol baseline, read-out: % of maximum relaxation): 2.5%; inhibition at 100 µM ([1]; 10^-4 moles/liter, bethanechol 250 μM, read-out: % background relaxation): 80%; inhibition at 10 µM ([1]; 10^-5 moles/liter, bethanechol 250 μM, read-out: % background relaxation): 1.3%; inhibition at 1 µM ([1]; 10^-6 moles/liter, bethanechol 250 μM, read-out: % background relaxation): 0%; inhibition at 0.1 µM ([1]; 10^-7 moles/liter, bethanechol 250 μM, read-out: % background relaxation): 0%; inhibition at 0.01 µM ([1]; 10^-8 moles/liter, bethanechol 250 μM, read-out: % background relaxation): 0% |
| CCN(CC)CCSC(=O)C(C)(C)C [trimethylacetyl-thio-S-(2-diethylaminoethyl)-ester.HCl] | 66 | 0.82 | 4.1 | 0.40 | 2.0 | 0.38 | 1.9 | 0.38 | 1.9 | 0.00 | 0.0 | inhibition at 0.01 µM [1, 7]: 0%; inhibition at 0.1 µM [1, 7]: 16.5%; inhibition at 1 µM [1, 7]: 16.5%; inhibition at 10 µM [1, 7]: 16.5%; inhibition at 100 µM [1, 7]: 35.7%; inhibition at 0.01 µM [1, 8]: 0%; inhibition at 0.1 µM [1, 8]: 14.1%; inhibition at 1 µM [1, 8]: 14.1%; inhibition at 10 µM [1, 8]: 14.1%; inhibition at 100 µM [1, 8]: 29.7% |
